Measured values from patent US20130216615A1, “Pharmaceutical Compositions Containing Dimethyl Fumarate” (priority 2012, published 2013).
Counter-ions that a name gives are not always drawn.

What was measured:
[1] = PK of DMF with or without aspirin in healthy adult volunteers, plasma MMF; type: in vivo, human; conditions: aspirin 325 mg 30 minutes before each DMF dose
Description: The concentration of MMF was determined by high pressure liquid chromatography with tandem mass spectrometry, using […] as the internal standard. Further pharmacokinetic parameters were derived by non-compartmental analysis

[2] = Laser Doppler perfusion of facial skin during flushing; type: in vivo, human; conditions: aspirin pretreatment before DMF
Description: Laser Doppler perfusion was used as an exploratory quantitative measure of facial skin perfusion during flushing. This technique uses non-invasive imaging of superficial tissue blood perfusion, recorded as Blood Perfusion Units on a relative units scale. Laser Doppler perfusion was measured at the same 16 timepoints as the FSS.

[3] = Subject-reported flushing severity (GFSS, FSS); conditions: 325 mg non-enteric coated aspirin 30 minutes prior to DMF dosing, healthy volunteer study
Description: (§1) A randomized, double-blind, placebo-controlled study in healthy adult volunteers was conducted in which a total of 56 subjects were randomized to receive 4 days' treatment with DMF 240 mg BID, DMF 240 mg TID, DMF 360 mg BID or placebo, with aspirin 325 mg or matching aspirin placebo administered 30 minutes before each DMF or DMF placebo dose. An additional 8 patients were assigned to a modified dosing group receiving DMF 120 mg or placebo 6 times daily (3 doses at hourly intervals in the morning and a further 3 doses at hourly intervals in the evening). There were 6 subjects per group, except for the modified dosing regimen, where an additional 2 subjects were assigned to placebo.
(§2) Flushing severity was assessed by 2 validated subject-reported measures, the global Flushing Severity Scale (GFSS) and the Flushing Severity Scale (FSS), which are adapted from the flushing scale described in Norquist J M, et al. Curr Med Res Opin 23:1547-1560 (2007). Both of these measures rate flushing severity on a scale of 0-10, where 0=no flushing, 1-3=mild flushing, 4-6=moderate flushing, 7-9=severe flushing, and 10=extreme flushing. The GFSS is a visual-analogue scale measuring redness, warmth, tingling and itching of the skin experienced over the preceding 24 h. Subjects completed the GFSS immediately before the first dose of study drug (0 h) on days 1 to 4, again at 0 h on day 5 and once more at follow-up on day 11. On the FSS, subjects rated their overall flushing and 4 items describing specific flushing symptoms (redness, warmth, tingling, itching) at the time of administration of the questionnaire. The FSS scale was administered at 16 time points over 12 h (Hours 0, 0.5, 1, 1.5, 2, 2.5, 3, 4, 5, 6, 7, 8, 9, 10, 11, 12) on days 1 to 4 and once on day 5 (24 h after the first day 4 dose) to assess the quality and intensity of subject-reported flushing symptoms in real time. Subjects rated 5 items relating only to the period since they last answered the questionnaire and/or received study drug.

[4] = human, in vivo
Description: as §1, §2

Row | effect of aspirin pretreatment on MMF concentration-time profiles [1] | magnitude of Doppler perfusion response [2] | flushing severity on the FSS [4] | mean GFSS score ([4]; 2 day) | Structure (SMILES) | occurrence and severity of flushing [3]
1 | no apparent effect | decreased | – | – | CC(=O)Oc1ccccc1C(=O)O [aspirin] | reduce the occurrence and severity of flushing
2 | – | – | mild to moderate | 1.5-3.5 | COC(=O)/C=C/C(=O)OC [DMF, dimethyl fumarate] | –
